Laboratory results taken from ChEMBL document CHEMBL3885861, “Open TG-GATES”.

Species: Rattus norvegicus
Test: Open TG-GATES - Regimen: Daily Repeat
Assay type: toxicity, organism-based, Sprague-Dawley
Parameters: regimen Daily Repeat, gender Male, age 6 weeks
Conditions: in vivo, po, 600 mg/kg, route gavage, dose level High; for APTT / Bas / Eos / Fbg / Hb / Ht / Lym / MCHC / MCV / Mono / PT / Plat / RBC / Ret / WBC / Neu: tissue Blood; for KIDNEY_L / KIDNEY_R / KIDNEY_TOTAL: tissue Kidney; for LIVER: tissue Liver; for ALP / ALT / AST / CRE / DBIL / GLC / IP / K / LDH / Na / PL / RALB / TBIL / TC / TG / TP / gamma-GTP / Ca: tissue Plasma

## O=C1NC(=O)C(c2ccccc2)(c2ccccc2)N1 [PHENYTOIN]
72 h, time 3 day
  APTT: 21.7 s
  Bas: 0%
  Eos: 1%
  Fbg: 282.8 mg/dL
  Hb: 13.4 g/dL
  Ht: 39.8%
  Lym: 77.6%
  MCHC: 33.8%
  MCV: 64.7 fL
  Mono: 2.4%
  PT: 15.7 s
  Plat: 124.6 x10_4/uL
  RBC: 617 x10_4/ul
  Ret: 6.3%
  WBC: 85 x10_2/uL
  KIDNEY_L: 0.9 g
  KIDNEY_R: 0.9 g
  KIDNEY_TOTAL: 1.9 g
  LIVER: 10.5 g
  ALP: 1803.2 IU/L
  ALT: 45 IU/L
  AST: 73.6 IU/L
  CRE: 0.1 mg/dL
  DBIL: 0.002 mg/dL
  GLC: 158 mg/dL
  IP: 7.3 mg/dL
  K: 4.4 meq/L
  LDH: 193.6 IU/L
  Na: 143.2 meq/L
  PL: 127.4 mg/dL
  RALB: 3 g/dL
  TBIL: 0.01 mg/dL
  TC: 67 mg/dL
  TG: 74.6 mg/dL
  TP: 5.7 g/dL
  gamma-GTP: 1.2 IU/L
[…], time 7 day
  TERMINAL_BW: 243.1 g
  APTT: 23.9 s
  Bas: 0%
  Eos: 0.6%
  Fbg: 311.5 mg/dL
  Hb: 13.8 g/dL
  Ht: 39.7%
  Lym: 80.4%
  MCHC: 34.7%
  MCV: 62.1 fL
  Mono: 2.2%
  Neu: 15.6%
  PT: 15.6 s
  Plat: 125.6 x10_4/uL
  RBC: 638.6 x10_4/ul
  Ret: 4.6%
  WBC: 101.9 x10_2/uL
  KIDNEY_L: 1.1 g
  KIDNEY_R: 1.1 g
  KIDNEY_TOTAL: 2.2 g
  LIVER: 13.6 g
  ALP: 1547.2 IU/L
  ALT: 39.4 IU/L
  AST: 59.6 IU/L
  CRE: 0.2 mg/dL
  DBIL: 0 mg/dL
  GLC: 167 mg/dL
  IP: 6.8 mg/dL
  K: 4.2 meq/L
  LDH: 173 IU/L
  Na: 142.2 meq/L
  PL: 145.2 mg/dL
  RALB: 3 g/dL
  TBIL: 0.024 mg/dL
  TC: 77.8 mg/dL
  TG: 78.6 mg/dL
  TP: 5.8 g/dL
  gamma-GTP: 1 IU/L
[…], time 14 day
  TERMINAL_BW: 290.1 g
  APTT: 25.5 s
  Bas: 0%
  Eos: 0.8%
  Fbg: 281.6 mg/dL
  Hb: 14.4 g/dL
  Ht: 42.7%
  Lym: 81.6%
  MCHC: 33.6%
  MCV: 60.3 fL
  Mono: 1.8%
  Neu: 14.6%
  PT: 16.3 s
  Plat: 121.7 x10_4/uL
  RBC: 709.6 x10_4/ul
  Ret: 4.4%
  WBC: 118.8 x10_2/uL
  KIDNEY_L: 1.2 g
  KIDNEY_R: 1.2 g
  KIDNEY_TOTAL: 2.3 g
  LIVER: 13.6 g
  ALP: 1535.6 IU/L
  ALT: 43.6 IU/L
  AST: 65.6 IU/L
  CRE: 0.2 mg/dL
  Ca: 10.2 mg/dL
  DBIL: 0 mg/dL
  GLC: 186 mg/dL
  IP: 6.4 mg/dL
  K: 4.1 meq/L
  LDH: 157.2 IU/L
  Na: 143 meq/L
  PL: 137.8 mg/dL
  RALB: 3 g/dL
  TBIL: 0.004 mg/dL
  TC: 69.4 mg/dL
  TG: 99.4 mg/dL
  TP: 5.7 g/dL
  gamma-GTP: 1.6 IU/L
[…], time 28 day
  TERMINAL_BW: 332.2 g
  APTT: 25.5 s
  Bas: 0%
  Eos: 1%
  Fbg: 299 mg/dL
  Hb: 15.7 g/dL
  Ht: 44.4%
  Lym: 85.2%
  MCHC: 35.4%
  MCV: 56.8 fL
  Mono: 1.4%
  Neu: 11.6%
  PT: 15.9 s
  Plat: 105 x10_4/uL
  RBC: 781.8 x10_4/ul
  Ret: 2.5%
  WBC: 89.2 x10_2/uL
  KIDNEY_L: 1.3 g
  KIDNEY_R: 1.3 g
  KIDNEY_TOTAL: 2.6 g
  LIVER: 13.8 g
  ALP: 1175.6 IU/L
  ALT: 40.4 IU/L
  AST: 62 IU/L
  CRE: 0.2 mg/dL
  Ca: 10 mg/dL
  DBIL: 0 mg/dL
  GLC: 183.2 mg/dL
  IP: 5.4 mg/dL
  K: 4 meq/L
  LDH: 135.8 IU/L
  Na: 143.4 meq/L
  PL: 135.4 mg/dL
  RALB: 3.1 g/dL
  TBIL: 0.024 mg/dL
  TC: 67.2 mg/dL
  TG: 95.4 mg/dL
  TP: 6.1 g/dL
  gamma-GTP: 1.4 IU/L
